Test results from patent EP4691468A1, “PHARMACEUTICAL COMPOSITION FOR TREATING INFLAMMATORY BOWEL DISEASE” (EA Pharma Co., Ltd., priority 2023, dated 2024).

Assay: Phase 1 single-dose administration study: plasma concentration of Compound (2) by LC/MS/MS
Conditions: for Average Plasma Concentrations of Compound (2) after Single-Dose Administration: oral; for Judgment Trough Value / Plasma Concentration Trough Value: Measured Value, Single, Once
Description: A phase 1 clinical trial was conducted to evaluate the safety, tolerability, and pharmacokinetics of Compound (1) when orally administered to healthy adult males.
This clinical trial was a single-center, randomized, double-blind, placebo-controlled, single and multiple ascending dose study with the primary objective of evaluating the safety and tolerability of Compound (1) when orally administered to healthy adult males.
The subjects in each cohort consisted of 8 people, of which 6 were assigned to Compound (1) and 2 were assigned to placebo, and they were administered the drug.
The plasma concentration of Compound (2) was measured using a validated measurement method. Specifically, plasma was separated from collected blood and processed, and then the plasma concentration was measured by an LC/MS/MS apparatus.
Compound (1) was orally administered once to 6 healthy adult males per dose and dosage form at doses of 6, 20, 100, 200, and 400 mg in the form of hard capsules (CAP), liquid self-emulsifying drug delivery system (L-SEDDS), or soft capsule self-emulsifying drug delivery system (C-SEDDS).

Average Plasma Concentrations of Compound (2) after Single-Dose Administration (Compound (1) 100 mg CAP, Time 6 h): 1.906 ng/mL
Average Plasma Concentrations of Compound (2) after Single-Dose Administration (Compound (1) 100 mg CAP, Time 7 h): 1.498 ng/mL
Average Plasma Concentrations of Compound (2) after Single-Dose Administration (Compound (1) 100 mg CAP, Time 8 h): 1.357 ng/mL
Average Plasma Concentrations of Compound (2) after Single-Dose Administration (Compound (1) 100 mg CAP, Time 12 h): 1.276 ng/mL
Average Plasma Concentrations of Compound (2) after Single-Dose Administration (Compound (1) 100 mg CAP, Time 15 h): 1.135 ng/mL
Average Plasma Concentrations of Compound (2) after Single-Dose Administration (Compound (1) 100 mg CAP, Time 21 h): 1.046 ng/mL
Average Plasma Concentrations of Compound (2) after Single-Dose Administration (Compound (1) 100 mg CAP, Time 24 h): 1.030 ng/mL
Average Plasma Concentrations of Compound (2) after Single-Dose Administration (Compound (1) 200 mg C-SEDDS, Time 0.5 h): Below quantitation limit
Average Plasma Concentrations of Compound (2) after Single-Dose Administration (Compound (1) 200 mg C-SEDDS, Time 1 h): Below quantitation limit
Average Plasma Concentrations of Compound (2) after Single-Dose Administration (Compound (1) 200 mg C-SEDDS, Time 1.5 h): 2.14 ng/mL
Average Plasma Concentrations of Compound (2) after Single-Dose Administration (Compound (1) 200 mg C-SEDDS, Time 2 h): 6.68 ng/mL
Average Plasma Concentrations of Compound (2) after Single-Dose Administration (Compound (1) 200 mg C-SEDDS, Time 2.5 h): 10.5 ng/mL
Average Plasma Concentrations of Compound (2) after Single-Dose Administration (Compound (1) 200 mg C-SEDDS, Time 3 h): 13.4 ng/mL
Average Plasma Concentrations of Compound (2) after Single-Dose Administration (Compound (1) 200 mg C-SEDDS, Time 4 h): 14.2 ng/mL
Average Plasma Concentrations of Compound (2) after Single-Dose Administration (Compound (1) 200 mg C-SEDDS, Time 5 h): 10.4 ng/mL
Average Plasma Concentrations of Compound (2) after Single-Dose Administration (Compound (1) 200 mg C-SEDDS, Time 6 h): 5.91 ng/mL
Average Plasma Concentrations of Compound (2) after Single-Dose Administration (Compound (1) 200 mg C-SEDDS, Time 7 h): 3.46 ng/mL
Average Plasma Concentrations of Compound (2) after Single-Dose Administration (Compound (1) 200 mg C-SEDDS, Time 8 h): 3.33 ng/mL
Average Plasma Concentrations of Compound (2) after Single-Dose Administration (Compound (1) 200 mg C-SEDDS, Time 12 h): 2.48 ng/mL
Average Plasma Concentrations of Compound (2) after Single-Dose Administration (Compound (1) 200 mg C-SEDDS, Time 15 h): 2.14 ng/mL
Average Plasma Concentrations of Compound (2) after Single-Dose Administration (Compound (1) 200 mg C-SEDDS, Time 21 h): 1.85 ng/mL
Average Plasma Concentrations of Compound (2) after Single-Dose Administration (Compound (1) 200 mg C-SEDDS, Time 24 h): 1.69 ng/mL
Average Plasma Concentrations of Compound (2) after Single-Dose Administration (Compound (1) 200 mg L-SEDDS, Time 0.5 h): 4.28 ng/mL
Average Plasma Concentrations of Compound (2) after Single-Dose Administration (Compound (1) 200 mg L-SEDDS, Time 1 h): 11.5 ng/mL
Average Plasma Concentrations of Compound (2) after Single-Dose Administration (Compound (1) 200 mg L-SEDDS, Time 1.5 h): 14.2 ng/mL
Average Plasma Concentrations of Compound (2) after Single-Dose Administration (Compound (1) 200 mg L-SEDDS, Time 2 h): 13.5 ng/mL
Average Plasma Concentrations of Compound (2) after Single-Dose Administration (Compound (1) 200 mg L-SEDDS, Time 2.5 h): 13.0 ng/mL
Average Plasma Concentrations of Compound (2) after Single-Dose Administration (Compound (1) 200 mg L-SEDDS, Time 3 h): 10.9 ng/mL
Average Plasma Concentrations of Compound (2) after Single-Dose Administration (Compound (1) 200 mg L-SEDDS, Time 4 h): 9.50 ng/mL
Average Plasma Concentrations of Compound (2) after Single-Dose Administration (Compound (1) 200 mg L-SEDDS, Time 5 h): 6.46 ng/mL
Average Plasma Concentrations of Compound (2) after Single-Dose Administration (Compound (1) 200 mg L-SEDDS, Time 6 h): 3.97 ng/mL
Average Plasma Concentrations of Compound (2) after Single-Dose Administration (Compound (1) 200 mg L-SEDDS, Time 7 h): 2.89 ng/mL
Average Plasma Concentrations of Compound (2) after Single-Dose Administration (Compound (1) 200 mg L-SEDDS, Time 8 h): 2.54 ng/mL
Average Plasma Concentrations of Compound (2) after Single-Dose Administration (Compound (1) 200 mg L-SEDDS, Time 12 h): 2.07 ng/mL
Average Plasma Concentrations of Compound (2) after Single-Dose Administration (Compound (1) 200 mg L-SEDDS, Time 15 h): 2.00 ng/mL
Average Plasma Concentrations of Compound (2) after Single-Dose Administration (Compound (1) 200 mg L-SEDDS, Time 21 h): 2.11 ng/mL
Average Plasma Concentrations of Compound (2) after Single-Dose Administration (Compound (1) 200 mg L-SEDDS, Time 24 h): 2.25 ng/mL
Average Plasma Concentrations of Compound (2) after Single-Dose Administration (Compound (1) 400 mg L-SEDDS, Time 0.5 h): 8.84 ng/mL
Average Plasma Concentrations of Compound (2) after Single-Dose Administration (Compound (1) 400 mg L-SEDDS, Time 1 h): 36.7 ng/mL
Average Plasma Concentrations of Compound (2) after Single-Dose Administration (Compound (1) 400 mg L-SEDDS, Time 1.5 h): 45.6 ng/mL
Average Plasma Concentrations of Compound (2) after Single-Dose Administration (Compound (1) 400 mg L-SEDDS, Time 2 h): 45.0 ng/mL
Average Plasma Concentrations of Compound (2) after Single-Dose Administration (Compound (1) 400 mg L-SEDDS, Time 2.5 h): 40.1 ng/mL
Average Plasma Concentrations of Compound (2) after Single-Dose Administration (Compound (1) 400 mg L-SEDDS, Time 3 h): 31.8 ng/mL
Average Plasma Concentrations of Compound (2) after Single-Dose Administration (Compound (1) 400 mg L-SEDDS, Time 4 h): 22.6 ng/mL
Average Plasma Concentrations of Compound (2) after Single-Dose Administration (Compound (1) 400 mg L-SEDDS, Time 5 h): 14.3 ng/mL
Average Plasma Concentrations of Compound (2) after Single-Dose Administration (Compound (1) 400 mg L-SEDDS, Time 6 h): 8.41 ng/mL
Average Plasma Concentrations of Compound (2) after Single-Dose Administration (Compound (1) 400 mg L-SEDDS, Time 7 h): 6.54 ng/mL
Average Plasma Concentrations of Compound (2) after Single-Dose Administration (Compound (1) 400 mg L-SEDDS, Time 8 h): 4.76 ng/mL
Average Plasma Concentrations of Compound (2) after Single-Dose Administration (Compound (1) 400 mg L-SEDDS, Time 12 h): 4.34 ng/mL
Average Plasma Concentrations of Compound (2) after Single-Dose Administration (Compound (1) 400 mg L-SEDDS, Time 15 h): 3.90 ng/mL
Average Plasma Concentrations of Compound (2) after Single-Dose Administration (Compound (1) 400 mg L-SEDDS, Time 21 h): 3.98 ng/mL
Average Plasma Concentrations of Compound (2) after Single-Dose Administration (Compound (1) 400 mg L-SEDDS, Time 24 h): 3.79 ng/mL
Judgment Trough Value (6/CAP): C (less than IC50 (1.9 ng/mL))
Judgment Trough Value (20/CAP): C (less than IC50 (1.9 ng/mL))
Plasma Concentration Trough Value (20/CAP): 0.25 ng/mL
Judgment Trough Value (100/CAP): C (less than IC50 (1.9 ng/mL))
Plasma Concentration Trough Value (100/CAP): 1.03 ng/mL
Judgment Trough Value (200/C-SEDDS): C (less than IC50 (1.9 ng/mL))
Plasma Concentration Trough Value (200/C-SEDDS): 1.69 ng/mL
Plasma Concentration Trough Value (200/L-SEDDS): 2.25 ng/mL
Plasma Concentration Trough Value (400/L-SEDDS): 3.79 ng/mL
trough value resulting from C-SEDDS relative to the trough value resulting from L-SEDDS (single-dose administration, 200 mg): about 75%
Structure (SMILES): Cc1cc(=O)n(-c2ccc(C[C@H](NC(=O)c3cc(F)c(NS(=O)(=O)c4ccc(NC(=O)C(C)(C)C)cc4)cc3F)C(=O)O)cn2)c(=O)n1C [Compound (2)]
Judgment Trough Value (200/L-SEDDS): B (IC50 (1.9 ng/mL) or higher and less than IC90 (6.9 ng/mL))
Judgment Trough Value (400/L-SEDDS): B (IC50 (1.9 ng/mL) or higher and less than IC90 (6.9 ng/mL))
